From publication PMC4854315, “Discovery of a novel allosteric inhibitor-binding site in ERK5: comparison with the canonical kinase hinge ATP-binding site” (Acta Crystallographica. Section D, Structural Biology, 2016)

Columns and labels:
Experiment in all cases: Z'-LYTE kinase panel
Format in all cases: biochemical
CAMK4 (CaMKIV) = target: T1, CAMK4 (CaMKIV) (Homo sapiens, UniProt Q16566)
T1 construct: purchased ThermoFisher (SelectScreen, Z'-LYTE)
Method in brief: (§1)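 Screened at 10 µM against a 225-kinase panel; the Z′-LYTE standard assay gave percentage inhibition values.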

CSNK1A1 (CK1 alpha 1) = target: T2, CSNK1A1 (CK1 alpha 1) (Homo sapiens, UniProt P48729)
T2 construct: purchased ThermoFisher (SelectScreen, Z'-LYTE)
Method in brief: as §1

FRAP1 (mTOR) = target: T3, FRAP1 (mTOR) (Homo sapiens, UniProt P42345)
T3 construct: purchased ThermoFisher (SelectScreen, Z'-LYTE)
Method in brief: as §1

HIPK4 = target: T4, HIPK4 (Homo sapiens, UniProt Q8NE63)
T4 construct: purchased ThermoFisher (SelectScreen, Z'-LYTE)
T4 sequence (Q8NE63 1-616): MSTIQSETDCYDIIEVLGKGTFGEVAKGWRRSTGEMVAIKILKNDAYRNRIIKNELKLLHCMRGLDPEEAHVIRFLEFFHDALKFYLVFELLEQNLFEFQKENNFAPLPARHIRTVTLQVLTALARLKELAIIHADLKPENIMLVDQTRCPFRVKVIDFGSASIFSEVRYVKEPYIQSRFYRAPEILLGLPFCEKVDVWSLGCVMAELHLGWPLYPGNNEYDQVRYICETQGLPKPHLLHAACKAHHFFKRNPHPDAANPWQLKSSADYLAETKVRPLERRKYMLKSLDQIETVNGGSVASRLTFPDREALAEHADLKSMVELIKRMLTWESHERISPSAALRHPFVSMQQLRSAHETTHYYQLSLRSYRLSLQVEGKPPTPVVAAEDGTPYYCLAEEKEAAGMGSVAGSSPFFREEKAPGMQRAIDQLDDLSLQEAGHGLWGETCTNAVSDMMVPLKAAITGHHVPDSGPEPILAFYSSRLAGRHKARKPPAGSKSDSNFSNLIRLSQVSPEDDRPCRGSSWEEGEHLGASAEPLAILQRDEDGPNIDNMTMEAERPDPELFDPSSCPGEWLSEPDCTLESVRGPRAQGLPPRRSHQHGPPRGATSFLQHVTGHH
Method in brief: as §1

MAPK13 (p38 delta) = target: T5, MAPK13 (p38 delta) (Homo sapiens, UniProt O15264)
T5 construct: purchased ThermoFisher (SelectScreen, Z'-LYTE)
T5 sequence (O15264 1-365): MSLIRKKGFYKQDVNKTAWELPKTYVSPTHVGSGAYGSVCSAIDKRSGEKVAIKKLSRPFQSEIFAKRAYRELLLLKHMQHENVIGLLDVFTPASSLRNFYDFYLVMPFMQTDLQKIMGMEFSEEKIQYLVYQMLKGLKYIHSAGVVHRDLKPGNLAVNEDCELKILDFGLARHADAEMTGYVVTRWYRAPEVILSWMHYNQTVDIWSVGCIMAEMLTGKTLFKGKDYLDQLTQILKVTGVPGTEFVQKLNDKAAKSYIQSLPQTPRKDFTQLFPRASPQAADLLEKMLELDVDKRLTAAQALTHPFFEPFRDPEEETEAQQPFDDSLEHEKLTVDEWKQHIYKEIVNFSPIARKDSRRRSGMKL
Method in brief: as §1

MINK1 = target: T6, MINK1 (Homo sapiens, UniProt Q8N4C8)
T6 construct: purchased ThermoFisher (SelectScreen, Z'-LYTE)
Method in brief: as §1

PAK4 = target: T7, PAK4 (Homo sapiens, UniProt O96013)
T7 construct: purchased ThermoFisher (SelectScreen, Z'-LYTE)
Method in brief: as §1

PLK1 = target: T8, PLK1 (Homo sapiens, UniProt P53350)
T8 construct: purchased ThermoFisher (SelectScreen, Z'-LYTE)
Method in brief: as §1

PRKCB2 (PKC beta II) = target: T9, PRKCB2 (PKC beta II) (Homo sapiens, UniProt P05771)
T9 construct: purchased ThermoFisher (SelectScreen, Z'-LYTE)
Method in brief: as §1

PRKG2 (PKG2) = target: T10, PRKG2 (PKG2) (Homo sapiens, UniProt Q13237)
T10 construct: purchased ThermoFisher (SelectScreen, Z'-LYTE)
T10 sequence (Q13237 1-762): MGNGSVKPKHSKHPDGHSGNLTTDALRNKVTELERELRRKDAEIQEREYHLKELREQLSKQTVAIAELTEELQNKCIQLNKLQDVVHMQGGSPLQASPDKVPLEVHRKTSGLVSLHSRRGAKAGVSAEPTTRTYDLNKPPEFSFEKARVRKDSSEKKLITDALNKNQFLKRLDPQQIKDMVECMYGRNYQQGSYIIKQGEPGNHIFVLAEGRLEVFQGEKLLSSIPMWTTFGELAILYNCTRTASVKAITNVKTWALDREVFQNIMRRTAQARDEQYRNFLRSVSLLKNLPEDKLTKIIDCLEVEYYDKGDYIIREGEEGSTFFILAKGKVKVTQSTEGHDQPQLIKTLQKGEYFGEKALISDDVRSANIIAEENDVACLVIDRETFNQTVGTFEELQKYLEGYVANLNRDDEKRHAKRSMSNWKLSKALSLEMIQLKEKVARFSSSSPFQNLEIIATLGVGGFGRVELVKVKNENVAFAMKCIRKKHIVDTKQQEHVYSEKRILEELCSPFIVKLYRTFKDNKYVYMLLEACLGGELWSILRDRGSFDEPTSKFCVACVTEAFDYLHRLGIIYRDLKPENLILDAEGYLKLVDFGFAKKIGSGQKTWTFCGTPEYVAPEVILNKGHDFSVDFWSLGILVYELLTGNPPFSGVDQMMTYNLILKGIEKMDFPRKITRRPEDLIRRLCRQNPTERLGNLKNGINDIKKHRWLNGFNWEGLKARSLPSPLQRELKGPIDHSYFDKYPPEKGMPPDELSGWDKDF
Method in brief: as §1

PTK6 (Brk) = target: T11, PTK6 (Brk) (Homo sapiens, UniProt Q13882)
T11 construct: purchased ThermoFisher (SelectScreen, Z'-LYTE)
Method in brief: as §1

TXK = target: T12, TXK (Homo sapiens, UniProt P42681)
T12 construct: purchased ThermoFisher (SelectScreen, Z'-LYTE)
T12 sequence (P42681 1-527): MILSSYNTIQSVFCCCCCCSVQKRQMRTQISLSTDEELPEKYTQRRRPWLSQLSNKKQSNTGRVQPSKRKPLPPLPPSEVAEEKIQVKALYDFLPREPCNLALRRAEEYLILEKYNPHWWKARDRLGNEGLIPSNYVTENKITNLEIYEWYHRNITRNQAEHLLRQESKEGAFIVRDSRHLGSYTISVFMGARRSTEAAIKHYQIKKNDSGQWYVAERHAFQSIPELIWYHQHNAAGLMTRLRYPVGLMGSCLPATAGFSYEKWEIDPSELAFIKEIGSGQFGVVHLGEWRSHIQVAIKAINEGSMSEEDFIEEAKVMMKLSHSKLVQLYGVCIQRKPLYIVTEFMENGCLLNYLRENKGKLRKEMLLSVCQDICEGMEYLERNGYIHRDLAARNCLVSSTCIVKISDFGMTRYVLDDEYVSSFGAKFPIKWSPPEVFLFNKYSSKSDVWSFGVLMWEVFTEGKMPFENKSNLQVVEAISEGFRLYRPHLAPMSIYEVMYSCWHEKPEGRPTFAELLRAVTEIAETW
Method in brief: as §1

T2 sequence (P48729 whole entry): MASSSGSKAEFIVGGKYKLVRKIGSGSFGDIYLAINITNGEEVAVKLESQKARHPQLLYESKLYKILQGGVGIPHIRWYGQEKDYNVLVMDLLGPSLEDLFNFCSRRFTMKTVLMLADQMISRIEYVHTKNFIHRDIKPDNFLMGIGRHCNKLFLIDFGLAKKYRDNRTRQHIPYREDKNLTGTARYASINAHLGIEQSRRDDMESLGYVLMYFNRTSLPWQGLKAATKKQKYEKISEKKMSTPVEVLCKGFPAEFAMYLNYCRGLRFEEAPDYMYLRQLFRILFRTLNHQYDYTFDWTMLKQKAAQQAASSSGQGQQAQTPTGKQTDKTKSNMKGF
T9 sequence (P05771 1-673 isoform P05771-2): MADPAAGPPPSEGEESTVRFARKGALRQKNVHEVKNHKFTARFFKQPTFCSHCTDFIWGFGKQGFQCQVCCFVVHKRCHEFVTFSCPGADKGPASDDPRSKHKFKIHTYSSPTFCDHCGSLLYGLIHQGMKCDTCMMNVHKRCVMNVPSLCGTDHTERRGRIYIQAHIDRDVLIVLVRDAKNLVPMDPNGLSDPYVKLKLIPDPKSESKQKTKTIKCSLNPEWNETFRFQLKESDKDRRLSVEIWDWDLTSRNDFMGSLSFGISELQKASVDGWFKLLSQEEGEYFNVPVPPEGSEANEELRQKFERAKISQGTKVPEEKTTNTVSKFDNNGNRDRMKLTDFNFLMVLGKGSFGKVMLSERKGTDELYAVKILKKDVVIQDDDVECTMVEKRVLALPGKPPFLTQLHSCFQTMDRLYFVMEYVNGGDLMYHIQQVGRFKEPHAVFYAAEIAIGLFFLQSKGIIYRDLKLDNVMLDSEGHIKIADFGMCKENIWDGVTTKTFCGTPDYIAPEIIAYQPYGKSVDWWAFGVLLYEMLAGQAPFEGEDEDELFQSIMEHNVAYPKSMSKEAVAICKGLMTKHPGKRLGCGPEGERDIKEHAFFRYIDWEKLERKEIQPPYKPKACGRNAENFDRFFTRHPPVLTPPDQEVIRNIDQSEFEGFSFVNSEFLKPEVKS
T7 sequence (O96013 whole entry): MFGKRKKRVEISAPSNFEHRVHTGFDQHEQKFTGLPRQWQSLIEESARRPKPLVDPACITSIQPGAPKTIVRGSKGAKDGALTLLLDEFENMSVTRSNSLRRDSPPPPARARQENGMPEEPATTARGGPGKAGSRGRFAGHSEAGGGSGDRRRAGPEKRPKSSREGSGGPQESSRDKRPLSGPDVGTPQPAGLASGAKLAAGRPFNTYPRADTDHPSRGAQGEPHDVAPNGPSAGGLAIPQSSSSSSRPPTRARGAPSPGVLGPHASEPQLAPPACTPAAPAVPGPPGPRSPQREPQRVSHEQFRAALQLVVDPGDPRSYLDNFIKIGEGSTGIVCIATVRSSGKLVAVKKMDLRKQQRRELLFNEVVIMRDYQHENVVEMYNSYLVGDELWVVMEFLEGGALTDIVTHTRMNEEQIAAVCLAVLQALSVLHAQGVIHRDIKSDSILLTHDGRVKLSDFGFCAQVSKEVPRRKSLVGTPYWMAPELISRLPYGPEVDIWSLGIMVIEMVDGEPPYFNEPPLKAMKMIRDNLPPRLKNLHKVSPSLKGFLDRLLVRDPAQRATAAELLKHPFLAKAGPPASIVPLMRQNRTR
T8 sequence (P53350 whole entry): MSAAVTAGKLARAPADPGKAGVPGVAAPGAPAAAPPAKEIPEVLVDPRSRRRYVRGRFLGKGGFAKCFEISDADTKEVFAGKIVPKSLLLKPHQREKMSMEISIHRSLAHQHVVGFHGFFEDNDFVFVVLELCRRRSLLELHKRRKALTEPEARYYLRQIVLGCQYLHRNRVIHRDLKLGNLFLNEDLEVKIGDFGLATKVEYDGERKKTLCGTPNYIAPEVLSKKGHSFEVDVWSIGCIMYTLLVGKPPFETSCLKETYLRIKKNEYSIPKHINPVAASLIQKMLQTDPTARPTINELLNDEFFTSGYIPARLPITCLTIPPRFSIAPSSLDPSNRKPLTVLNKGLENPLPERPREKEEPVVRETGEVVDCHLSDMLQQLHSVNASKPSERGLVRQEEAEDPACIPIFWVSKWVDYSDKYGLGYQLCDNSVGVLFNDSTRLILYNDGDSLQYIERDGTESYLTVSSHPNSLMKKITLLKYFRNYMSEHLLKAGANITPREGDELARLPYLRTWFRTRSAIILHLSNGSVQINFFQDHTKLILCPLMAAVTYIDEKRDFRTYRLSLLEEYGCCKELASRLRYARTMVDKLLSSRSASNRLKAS
T11 sequence (Q13882 whole entry): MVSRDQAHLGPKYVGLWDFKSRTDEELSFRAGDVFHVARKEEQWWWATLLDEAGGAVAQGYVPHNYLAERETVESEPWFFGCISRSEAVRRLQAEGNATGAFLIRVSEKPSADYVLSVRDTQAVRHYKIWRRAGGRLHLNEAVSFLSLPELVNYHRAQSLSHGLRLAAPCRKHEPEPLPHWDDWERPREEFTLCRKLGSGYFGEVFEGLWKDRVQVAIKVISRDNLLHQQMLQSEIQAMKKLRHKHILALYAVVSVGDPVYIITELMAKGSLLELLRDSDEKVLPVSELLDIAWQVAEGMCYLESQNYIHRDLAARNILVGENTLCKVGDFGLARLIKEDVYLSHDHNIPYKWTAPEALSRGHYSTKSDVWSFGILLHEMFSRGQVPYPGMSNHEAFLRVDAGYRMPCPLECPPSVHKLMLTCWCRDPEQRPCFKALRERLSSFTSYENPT
T6 sequence (Q8N4C8 whole entry): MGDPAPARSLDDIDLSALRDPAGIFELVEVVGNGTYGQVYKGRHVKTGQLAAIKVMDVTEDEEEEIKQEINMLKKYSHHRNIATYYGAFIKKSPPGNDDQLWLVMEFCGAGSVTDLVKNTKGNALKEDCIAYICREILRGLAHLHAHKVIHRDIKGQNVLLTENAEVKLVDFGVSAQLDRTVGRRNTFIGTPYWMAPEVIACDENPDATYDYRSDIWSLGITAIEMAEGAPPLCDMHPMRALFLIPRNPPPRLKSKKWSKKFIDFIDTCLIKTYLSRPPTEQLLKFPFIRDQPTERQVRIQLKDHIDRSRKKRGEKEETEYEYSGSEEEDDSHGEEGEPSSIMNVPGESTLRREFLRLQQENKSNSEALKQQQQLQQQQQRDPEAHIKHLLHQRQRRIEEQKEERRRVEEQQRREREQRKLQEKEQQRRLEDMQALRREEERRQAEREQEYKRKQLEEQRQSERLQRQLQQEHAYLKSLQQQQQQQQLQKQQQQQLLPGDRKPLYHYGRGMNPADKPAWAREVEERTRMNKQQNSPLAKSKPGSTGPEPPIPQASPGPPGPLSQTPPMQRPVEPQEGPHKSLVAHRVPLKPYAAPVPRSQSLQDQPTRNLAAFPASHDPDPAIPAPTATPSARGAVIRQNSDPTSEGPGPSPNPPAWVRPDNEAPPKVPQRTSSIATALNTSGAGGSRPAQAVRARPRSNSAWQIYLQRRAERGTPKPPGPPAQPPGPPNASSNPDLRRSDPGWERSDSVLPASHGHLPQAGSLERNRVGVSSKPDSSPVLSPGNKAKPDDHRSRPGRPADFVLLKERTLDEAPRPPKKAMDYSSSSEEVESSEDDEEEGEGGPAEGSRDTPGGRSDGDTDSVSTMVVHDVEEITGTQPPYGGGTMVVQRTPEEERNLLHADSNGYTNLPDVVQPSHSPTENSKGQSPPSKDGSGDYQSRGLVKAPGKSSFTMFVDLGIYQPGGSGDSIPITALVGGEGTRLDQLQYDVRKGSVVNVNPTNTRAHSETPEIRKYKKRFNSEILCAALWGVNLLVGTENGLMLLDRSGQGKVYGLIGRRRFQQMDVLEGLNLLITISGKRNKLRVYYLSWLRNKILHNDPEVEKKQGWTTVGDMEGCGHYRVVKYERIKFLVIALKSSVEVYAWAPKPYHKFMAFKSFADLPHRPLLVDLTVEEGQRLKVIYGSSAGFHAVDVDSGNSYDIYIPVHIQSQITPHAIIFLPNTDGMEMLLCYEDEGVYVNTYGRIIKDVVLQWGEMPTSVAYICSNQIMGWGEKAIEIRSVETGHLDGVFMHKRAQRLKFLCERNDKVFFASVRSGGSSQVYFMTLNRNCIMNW

Molecule | inhibition at 10 µM (CAMK4 (CaMKIV)) | inhibition at 10 µM (CSNK1A1 (CK1 alpha 1)) | inhibition at 10 µM (FRAP1 (mTOR)) | inhibition at 10 µM (HIPK4) | inhibition at 10 µM (MAPK13 (p38 delta)) | inhibition at 10 µM (MINK1) | inhibition at 10 µM (PAK4) | inhibition at 10 µM (PLK1) | inhibition at 10 µM (PRKCB2 (PKC beta II)) | inhibition at 10 µM (PRKG2 (PKG2)) | inhibition at 10 µM (PTK6 (Brk)) | inhibition at 10 µM (TXK) | other results
XMD8-92 [Compound 2, reference compound] |  |  |  |  |  |  |  |  |  |  |  |  | CAMK4 (CaMKIV) % Inhibition (CAMK4 (CaMKIV); 10 µM compound, ATP Km app): 3%; CSNK1A1 (CK1 alpha 1) % Inhibition (CSNK1A1 (CK1 alpha 1); 10 µM compound, ATP Km app): 7%; FRAP1 (mTOR) % Inhibition (FRAP1 (mTOR); 10 µM compound, ATP Km app): -15%; HIPK4 % Inhibition (HIPK4; 10 µM compound, ATP Km app): 10%; MAPK13 (p38 delta) % Inhibition (MAPK13 (p38 delta); 10 µM compound, ATP Km app): 1.54%; MINK1 % Inhibition (MINK1; 10 µM compound, ATP Km app): 66%; PAK4 % Inhibition (PAK4; 10 µM compound, ATP Km app): 26%; PLK1 % Inhibition (PLK1; 10 µM compound, ATP Km app): 10%; PRKCB2 (PKC beta II) % Inhibition (PRKCB2 (PKC beta II); 10 µM compound, ATP Km app): 38%; PRKG2 (PKG2) % Inhibition (PRKG2 (PKG2); 10 µM compound, ATP Km app): 43%; PTK6 (Brk) % Inhibition (PTK6 (Brk); 10 µM compound, ATP Km app): 14%; TXK % Inhibition (TXK; 10 µM compound, ATP Km app): 73%
Cc1ncc(-c2nc(Nc3ccc(C(=O)NCCN4CCCCC4)cc3)ncc2F)n1C(C)C [Compound 3] | 8% | 28% | 44% | 92% | 65% | 88% | 81% | 57% | 89% | 95% | 61% | 40% | 
Cc1cc(Nc2nc(N)nn2C(=O)NC(C)C)ccc1Cl [Compound 5] | -10% | 4% | -12% | 19% | -0.07% | 21% | 41% | 0.455% | -12% | -9% | 5.47% | -9% | 
